# The supplement of paper PMC11061612
# Columns and labels:
# Assay in all cases: combination Emax (second highest fraction inhibited in the dose matrix, 72 h); higher = more inhibition; extreme values may be limits of the assay
# [1] = system: U-118-MG (Low Grade Glioma)
# Procedure, shortened: (§1)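 Cell lines grown in DMEM/F12 or RPMI with 10% FBS were plated in 1536-well plates and held 24 hours at 37°C, 5% CO2 before 72 hours of exposure to two-drug dose matrices, with DMSO typically at 0.2%. CellTiter-Glo 2.0 luminescence gave viability, which was converted to inhibition. Vehicle wells were set to 0 and blank wells to 1. Combination Emax is the second-highest inhibition in the matrix, and Bliss excess is the observed combination effect minus the expected EA + EB − EA·EB, where EA and EB are the single-agent effects.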
# [2] = system: RCC10RGB (Kidney Carcinoma)
# Procedure, shortened: as §1
# [3] = system: SLVL (B-Cell Non-Hodgkin's Lymphoma)
# Procedure, shortened: as §1
# [4] = system: WSU-DLCL2 (B-Cell Non-Hodgkin's Lymphoma)
# Procedure, shortened: as §1
# [5] = system: HLE (Hepatocellular Carcinoma)
# Procedure, shortened: as §1
# [6] = system: HCC38 (Breast Carcinoma)
# Procedure, shortened: as §1
# [7] = system: MSTO-211H (Mesothelioma)
# Procedure, shortened: as §1
# [8] = system: SK-MEL-1 (Melanoma)
# Procedure, shortened: as §1
# [9] = system: DOK (Oral Cavity Carcinoma)
# Procedure, shortened: as §1
# [10] = system: HCT-116 (Colorectal Carcinoma)
# Procedure, shortened: as §1
# [11] = system: NOMO-1 (Acute Myeloid Leukemia)
# Procedure, shortened: as §1
# [12] = system: H4 (Low Grade Glioma)
# Procedure, shortened: as §1
# [13] = system: PA-TU-8902 (Pancreatic Carcinoma)
# Procedure, shortened: as §1
# [14] = system: D-283MED (Other Solid Carcinomas)
# Procedure, shortened: as §1
# [15] = system: EW-22 (Ewing's Sarcoma)
# Procedure, shortened: as §1
# [16] = system: ETK-1 (Biliary Tract Carcinoma)
# Procedure, shortened: as §1
# [17] = system: EFM-192A (Breast Carcinoma)
# Procedure, shortened: as §1
# [18] = system: CAL-39 (Other Solid Carcinomas)
# Procedure, shortened: as §1
# [19] = system: 647-V (Bladder Carcinoma)
# Procedure, shortened: as §1
# [20] = system: SW948 (Colorectal Carcinoma)
# Procedure, shortened: as §1
Compound,combination Emax [1],combination Emax [2],combination Emax [3],combination Emax [4],combination Emax [5],combination Emax [6],combination Emax [7],combination Emax [8],combination Emax [9],combination Emax [10],combination Emax [11],combination Emax [12],combination Emax [13],combination Emax [14],combination Emax [15],combination Emax [16],combination Emax [17],combination Emax [18],combination Emax [19],combination Emax [20]
"CN(C)CCCOc1ccc(-c2ccc3ncc4c(c3c2)n(C2CCOCC2)c(=O)n4C)cn1 [AZD0156] + C=CCn1c(=O)c2cnc(Nc3ccc(N4CCN(C)CC4)cc3)nc2n1-c1cccc(C(C)(C)O)n1 [AZD1775] (first compound max 1 µM, partner max 1 µM)",0.316,0.464,0.904,0.944,0.747,0.505,0.667,0.442,0.375,0.494,0.96,0.791,0.252,0.996,0.616,0.515,0.353,0.376,0.446,–
"CN(C)CCCOc1ccc(-c2ccc3ncc4c(c3c2)n(C2CCOCC2)c(=O)n4C)cn1 [AZD0156] + CCN(CCO)CCCOc1ccc2c(Nc3cc(CC(=O)Nc4cccc(F)c4)[nH]n3)ncnc2c1 [AZD2811] (first compound max 1 µM, 7x7, partner max 1 µM)",0.194,0.143,0.605,0.359,0.414,0.181,0.27,0.275,0.334,0.287,0.501,0.513,0.0699,0.769,0.694,0.21,0.269,0.33,0.167,–
"CN(C)CCCOc1ccc(-c2ccc3ncc4c(c3c2)n(C2CCOCC2)c(=O)n4C)cn1 [AZD0156] + C[C@@H]1COCCN1C2=NC(=NC(=C2)C3(CC3)[S@](=N)(=O)C)C4=C5C=CNC5=NC=C4 [AZD6738] (first compound max 1 µM, 7x7, partner max 10 µM)",0.528,0.403,0.84,0.977,0.778,0.558,0.856,0.442,0.264,0.665,0.94,0.826,0.41,1,0.905,0.632,0.245,0.5,0.491,–
"C=CCn1c(=O)c2cnc(Nc3ccc(N4CCN(C)CC4)cc3)nc2n1-c1cccc(C(C)(C)O)n1 [AZD1775] + C[C@@H]1COCCN1C2=NC(=NC(=C2)C3(CC3)[S@](=N)(=O)C)C4=C5C=CNC5=NC=C4 [AZD6738] (first compound max 1 µM, partner max 10 µM)",0.662,0.538,0.917,1,0.886,0.712,0.85,0.55,0.545,0.757,0.978,0.994,0.49,1,0.902,0.665,0.39,0.598,0.769,–
"C=CCn1c(=O)c2cnc(Nc3ccc(N4CCN(C)CC4)cc3)nc2n1-c1cccc(C(C)(C)O)n1 [AZD1775] + O=C(c1cc(Cc2n[nH]c(=O)c3ccccc23)ccc1F)N1CCN(C(=O)C2CC2)CC1 [Olaparib] (first compound max 1 µM, partner max 10 µM)",–,0.52,0.915,0.992,0.823,0.579,0.696,0.42,0.457,0.635,0.917,0.853,0.289,1,0.894,0.515,0.293,0.402,0.654,–
"CCN(CCO)CCCOc1ccc2c(Nc3cc(CC(=O)Nc4cccc(F)c4)[nH]n3)ncnc2c1 [AZD2811] + C=CCn1c(=O)c2cnc(Nc3ccc(N4CCN(C)CC4)cc3)nc2n1-c1cccc(C(C)(C)O)n1 [AZD1775] (first compound max 1 µM, partner max 1 µM)",0.333,0.518,0.889,0.937,0.935,0.489,0.618,0.353,0.463,0.547,0.932,0.782,0.222,1,0.678,0.479,0.239,0.415,0.491,–
"CCN(CCO)CCCOc1ccc2c(Nc3cc(CC(=O)Nc4cccc(F)c4)[nH]n3)ncnc2c1 [AZD2811] + C[C@@H]1COCCN1C2=NC(=NC(=C2)C3(CC3)[S@](=N)(=O)C)C4=C5C=CNC5=NC=C4 [AZD6738] (first compound max 1 µM, 7x7, partner max 10 µM)",0.52,0.384,0.784,0.822,0.76,0.568,0.727,0.331,0.44,0.562,0.922,0.808,0.216,1,0.894,0.562,0.233,0.467,0.524,–
"CCN(CCO)CCCOc1ccc2c(Nc3cc(CC(=O)Nc4cccc(F)c4)[nH]n3)ncnc2c1 [AZD2811] + O=C(c1cc(Cc2n[nH]c(=O)c3ccccc23)ccc1F)N1CCN(C(=O)C2CC2)CC1 [Olaparib] (first compound max 1 µM, 7x7, partner max 10 µM)",0.377,0.211,0.723,0.273,0.409,0.287,0.35,0.289,0.375,0.452,0.396,0.558,0.187,0.817,0.949,0.216,0.212,0.324,0.275,–
"C[C@@H]1COCCN1c1cc(C2([S@](C)(=N)=O)CC2)nc(-c2ccnc3[nH]ccc23)n1 [AZD6738] + O=C(c1cc(Cc2n[nH]c(=O)c3ccccc23)ccc1F)N1CCN(C(=O)C2CC2)CC1 [Olaparib] (first compound max 10 µM, 7x7, partner max 10 µM)",0.589,0.441,0.834,0.92,0.981,0.611,0.705,0.312,0.369,0.78,0.908,0.791,0.195,1,0.942,0.678,0.32,0.526,0.61,–
"Cc1cc2ncnn2cc1Nc1ncc2c(n1)n(C1CCOCC1)c(=O)n2C [AZD7648] + O=C(c1cc(Cc2n[nH]c(=O)c3ccccc23)ccc1F)N1CCN(C(=O)C2CC2)CC1 [Olaparib] (first compound max 10 µM, 7x7, partner max 10 µM)",0.394,0.18,0.455,0.307,0.252,0.07,0.218,0.24,0.152,0.234,0.365,0.585,0.112,0.639,0.918,0.323,0.278,0.174,0.219,–
"CS(=O)(=O)CCNCc1ccc(-c2ccc3ncnc(Nc4ccc(OCc5cccc(F)c5)c(Cl)c4)c3c2)o1 [Lapatinib] + Cn1cnc2c(F)c(Nc3ccc(Br)cc3Cl)c(C(=O)NOCCO)cc21 [Selumetinib] (first compound max 10 µM, 7x7, partner max 10 µM)",–,–,0.432,0.472,0.234,0.214,0.337,0.838,0.933,0.775,0.661,0.27,–,0.935,0.242,–,–,1,–,0.774
"CS(=O)(=O)CCNCc1ccc(-c2ccc3ncnc(Nc4ccc(OCc5cccc(F)c5)c(Cl)c4)c3c2)o1 [Lapatinib] + NC1(c2ccc(-c3nc4ccn5c(=O)[nH]nc5c4cc3-c3ccccc3)cc2)CCC1 [MK-2206] (first compound max 10 µM, 7x7, partner max 10 µM)",–,–,0.81,0.99,0.597,0.503,0.126,0.888,0.935,0.891,0.778,0.883,0.72,0.96,0.868,0.947,–,0.999,–,0.655
"CCc1c2c(nc3ccc(O)cc13)-c1cc3c(c(=O)n1C2)COC(=O)[C@]3(O)CC [SN-38] + O=C(c1cc(Cc2n[nH]c(=O)c3ccccc23)ccc1F)N1CCN(C(=O)C2CC2)CC1 [Olaparib] (first compound max 0.3 µM, 7x7, partner max 10 µM)",–,–,1,1,0.945,0.682,0.677,0.516,0.587,0.9,0.968,0.938,0.428,0.947,0.947,0.63,–,0.979,–,0.647
"Cc1nc(-c2cn3c(n2)-c2ccc(-c4cnn(C(C)(C)C(N)=O)c4)cc2OCC3)n(C(C)C)n1 [Taselisib] + O=C(Nc1ccc2[nH]nc(-c3ccncc3)c2c1)[C@@H]1CCN(CC(=O)N2CCN(c3ccc(-c4ncccn4)cc3)CC2)C1 [SCH772984] (first compound max 10 µM, 7x7, partner max 5 µM)",–,–,0.667,0.961,0.33,0.355,0.806,0.893,1,1,0.932,0.68,–,0.775,0.719,–,–,1,–,0.964
